Experimental data published in patent publication US20250205186A1, “USE OF CHLOROGENIC ACID IN PREPARING MEDICINE OR PHARMACEUTICAL COMPOSITION FOR PREVENTING OR TREATING PAIN” (SICHUAN JIUZHANG BIOLOGICAL SCIENCE AND TECHNOLOGY CO., LTD., priority 2019, published 2025).

Legend:
Assay type in all cases: in vivo, rat
DA = DA content in brain tissue by HPLC-EC in bone cancer pain rats; conditions: for DA content in the brain tissue: after 15 days of administration
Experimental: 60 SD rats were randomly selected, and after anesthesia, a small 1 cm incision was made in the upper tibial skin. A 10 mL syringe needle was used to puncture and perforate, then a 10 μL syringe was inserted into the bone marrow cavity, and 3 μL cell suspension containing […] Walker rat breast cancer cells was slowly injected. The pinhole was sealed with bone wax, and the skin was sutured. After surgery, the rats were placed on a 37° C. hot plate for rewarming. After recovery, rats were returned to the cage for further breeding, to obtain the model group. In addition, 8 SD rats were randomly selected, and an equal volume of PBS solution was injected into the marrow cavity of the left upper tibia. The rest of the operations were the same as the model group, to obtain the sham operation group. The rats that had been successfully modeled were randomly divided into groups, eight rats for each group, that included high-dose chlorogenic acid group (80 mg/kg), middle-dose chlorogenic acid group (40 mg/kg), low-dose chlorogenic acid group (20 mg/kg), model negative group (N.S normal saline), and sham operation group (N.S normal saline). The rats were intraperitoneally injected with drugs for 15 days in a volume of 0.2 mL/10 g, once a day; the model-negative group and the sham operation group were given the same volume of normal saline. After the rats were sacrificed, the hypothalamus was quickly separated, homogenized in an ice bath with perchloric acid, and centrifuged. The supernatant was collected, and the contents of NE, DA, and 5-HT were determined by HPLC-EC method (Hou […], Wang Na, et al, Effects of progesterone on morphine-induced conditioned place preference and levels of monoamine transmitters in rat brain. Chinese Journal of Pharmacology, 2006, 22(8), 980-983).

TNF-α = experiment: Serum TNF-α content by ELISA in bone cancer pain rats; conditions: for Cytokines TNF-α content in serum: after 15 days of administration; for Serum level of TNF-α compared with the model-negative group: after 15 days
Experimental: (§1) 60 SD rats were randomly selected, and after anesthesia, a small 1 cm incision was made in the upper tibial skin. A 10 mL syringe needle was used to puncture and perforate, then a 10 μL syringe was inserted into the bone marrow cavity, and 3 μL cell suspension containing 3×10^3 Walker rat breast cancer cells was slowly injected. The pinhole was sealed with bone wax, and the skin was sutured. After surgery, the rats were placed on a 37° C. hot plate for rewarming. After recovery, rats were returned to the cage for further breeding, to obtain the model group. In addition, 8 SD rats were randomly selected, and an equal volume of PBS solution was injected into the marrow cavity of the left upper tibia. The rest of the operations were the same as the model group, to obtain the sham operation group. The rats that had been successfully modeled were randomly divided into groups, eight rats for each group, that included high-dose chlorogenic acid group (80 mg/kg), middle-dose chlorogenic acid group (40 mg/kg), low-dose chlorogenic acid group (20 mg/kg), model negative group (N.S normal saline), and sham operation group (N.S normal saline). The rats were intraperitoneally injected with drugs for 15 days in a volume of 0.2 mL/10 g, once a day; the model-negative group and the sham operation group were given the same volume of normal saline. After the last administration, blood was collected from the eyeballs of the rats, and the animals in each group were sacrificed by neck removal. The blood samples were allowed to stand at room temperature for 20 minutes and then centrifuged. The supernatant was collected and the contents of TNF-α, IL-1β, and IL-6 in the peripheral blood serum of the […] were determined by ELISA.

IL-1β = experiment: Serum IL-1β content by ELISA in bone cancer pain rats; conditions: for Cytokines IL-1β content in serum: after 15 days of administration; for Serum level of IL-1β compared with the model-negative group: after 15 days
Experimental: as §1

O=C(/C=C/c1ccc(O)c(O)c1)O[C@@H]1C[C@](O)(C(=O)O)C[C@@H](O)[C@H]1O [Chlorogenic acid]
DA content in the brain tissue (DA; 20 mg/kg ip once a day): 1.38 ± 0.21 nmol/g | DA content in brain tissue compared with the model-negative group (DA; 20 mg/kg, p<0.05): the difference was significant | DA content in the brain tissue (DA; 40 mg/kg ip once a day): 1.46 ± 0.08 nmol/g | DA content in brain tissue compared with the model-negative group (DA; 40 mg/kg, p<0.05): the difference was significant | DA content in the brain tissue (DA; 80 mg/kg ip once a day): 1.15 ± 0.12 nmol/g | DA content in brain tissue compared with the model-negative group (DA; 80 mg/kg, p>0.05): no significant difference | Cytokines TNF-α content in serum (TNF-α; 20 mg/kg ip once a day): 39.74 ± 6.04 ng/L | Serum level of TNF-α compared with the model-negative group (TNF-α; 20 mg/kg, p<0.05): lower than those in the model-negative group | Cytokines TNF-α content in serum (TNF-α; 40 mg/kg ip once a day): 35.25 ± 4.62 ng/L | Serum level of TNF-α compared with the model-negative group (TNF-α; 40 mg/kg, p<0.05): lower than those in the model-negative group | Cytokines TNF-α content in serum (TNF-α; 80 mg/kg ip once a day): 54.48 ± 5.99 ng/L | Serum level of TNF-α compared with the model-negative group (TNF-α; 80 mg/kg): the difference was not significant | Cytokines IL-1β content in serum (IL-1β; 20 mg/kg ip once a day): 58.54 ± 8.23 ng/L | Serum level of IL-1β compared with the model-negative group (IL-1β; 20 mg/kg, p<0.05): lower than those in the model-negative group | Cytokines IL-1β content in serum (IL-1β; 40 mg/kg ip once a day): 52.71 ± 6.39 ng/L | Serum level of IL-1β compared with the model-negative group (IL-1β; 40 mg/kg, p<0.05): lower than those in the model-negative group | Cytokines IL-1β content in serum (IL-1β; 80 mg/kg ip once a day): 76.25 ± 4.62 ng/L | Serum level of IL-1β compared with the model-negative group (IL-1β; 80 mg/kg): the difference was not significant
